For assay [1], the target named is human vasopressin V1b receptor (Homo sapiens (Human), UniProt P47901). Put plainly: Vasopressin V1b receptor binding assay. To be noted: membranes from CHO-K1 cells, displacement of 3H-AVP. The procedure: The test substances were dissolved in a concentration of 5 mM in 100% DMSO and further diluted to 5×10^−4 M to 5×10^−9 M. These serial DMSO predilutions were diluted 1:10 with assay buffer. The substance concentration was further diluted 1:5 in the assay mixture resulting in 2% DMSO in the mixture. All dilutions were performed in a Biomek NX automation workstation (Beckman)
The membrane pellet was again homogenized and centrifuged as described and subsequently taken up in 50 mM Tris-HCl, pH 7.4, homogenized and stored in aliquots frozen in liquid nitrogen at −190° C.
(§1) The incubation buffer was: 50 mM Tris, 10 mM MgCl2, 0.1% BSA, pH 7.4.
All determinations were carried out as duplicate determinations. […] The liquid scintillation measurement took place in a Microbeta TriLux 12 (Wallac). Analysis:
(§2) The binding parameters were calculated by nonlinear regression in SAS.
A general note: Loss of bound radioactivity is the signal in a displacement assay; it reports binding, not function.

In assay [2] the target is human vasopressin V1a receptor (Homo sapiens (Human), UniProt P37288). The assay is described as follows: Vasopressin V1a receptor binding assay. The settings on record: selectivity quotient, human V1a vs human V1b receptor. The procedure: The test substances were dissolved in a concentration of 5 mM M in DMSO. Further dilution of these DMSO solutions took place as described for V1b.
The membrane pellet was again homogenized in a High-Pressure-Homogenizer, Polytec 50K at 1500 PSI (Heinemann, Germany) and subsequently taken up in 50 mM Tris-HCl, pH 7.4, homogenized and stored in aliquots frozen in liquid nitrogen at −190° C.
as §1
Duplicate determinations were carried out.
After incubation (60 minutes at room temperature), the samples were processed as described for V1b.
as §2

Where only a bound is given, the exact number is not on record here.

human vasopressin V1a receptor, sequence (P37288 whole entry): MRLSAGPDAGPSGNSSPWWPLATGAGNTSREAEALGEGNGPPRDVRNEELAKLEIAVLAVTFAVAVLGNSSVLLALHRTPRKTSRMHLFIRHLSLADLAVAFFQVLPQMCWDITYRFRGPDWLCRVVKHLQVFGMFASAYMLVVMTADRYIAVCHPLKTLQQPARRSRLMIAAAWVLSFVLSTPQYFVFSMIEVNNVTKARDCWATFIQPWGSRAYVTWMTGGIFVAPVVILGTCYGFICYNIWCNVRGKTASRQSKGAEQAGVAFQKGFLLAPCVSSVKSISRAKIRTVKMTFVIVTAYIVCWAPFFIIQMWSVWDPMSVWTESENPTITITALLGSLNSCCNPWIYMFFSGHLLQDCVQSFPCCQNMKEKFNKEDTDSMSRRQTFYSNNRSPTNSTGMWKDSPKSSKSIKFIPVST
human vasopressin V1b receptor, sequence (P47901 whole entry): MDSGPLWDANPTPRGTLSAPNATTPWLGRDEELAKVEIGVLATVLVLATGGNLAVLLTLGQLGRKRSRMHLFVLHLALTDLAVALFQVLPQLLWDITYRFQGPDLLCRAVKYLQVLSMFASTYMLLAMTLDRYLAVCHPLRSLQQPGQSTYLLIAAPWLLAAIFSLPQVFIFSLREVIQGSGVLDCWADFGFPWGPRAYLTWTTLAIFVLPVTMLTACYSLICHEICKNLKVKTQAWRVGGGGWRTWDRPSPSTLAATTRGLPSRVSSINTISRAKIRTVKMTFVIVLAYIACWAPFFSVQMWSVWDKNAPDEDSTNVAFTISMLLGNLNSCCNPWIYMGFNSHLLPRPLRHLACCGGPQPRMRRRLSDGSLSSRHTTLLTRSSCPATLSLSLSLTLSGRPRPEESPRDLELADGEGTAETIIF

In the case of `COc1ccc(S(=O)(=O)N2C(=O)C(c3cc(OC)ccc3OC)(N3CC4(CN(C5CCN(C)CC5)C4)C3)c3cc(C#N)ccc32)nc1` (racemic) [Example 21, (±)-3-(2,5-dimethoxyphenyl)-1-[(5-methoxy-2-pyridyl)sulfonyl]-3-[2-(1-methyl-4-piperidyl)-2,6-diazaspiro[3.3]heptan-6-yl]-2-oxo-indoline-5-carbonitrile], the inhibitory constant (Ki) (as a rule, the equilibrium dissociation constant of an inhibitor or competing ligand from its target) in assay [1] was under 1 nM. For the same compound, in assay [2], the “Ki(h-V1a)/ Ki(h-V1b)” value is reported as “+ (10-<25)”.

Take `COc1ccc(S(=O)(=O)N2C(=O)C(c3cccnc3OC)(N3CC4(CN(C5CCN(C)CC5)C4)C3)c3cc(C#N)ccc32)nc1` (racemic) [Example 22, (±)-3-(2-methoxy-3-pyridyl)-1-[(5-methoxy-2-pyridyl)sulfonyl]-3-[2-(1-methyl-4-piperidyl)-2,6-diazaspiro[3.3]heptan-6-yl]-2-oxo-indoline-5-carbonitrile]: the Ki in assay [1] lay in the range of 1 to 10 nM. Moreover, the “Ki(h-V1a)/ Ki(h-V1b)” value in assay [2] is “+ (10-<25)”.

For the compound `COc1ccc(S(=O)(=O)N2C(=O)C(c3ccccc3OC)(N3CC4(CC(N5CCN(C)CC5)C4)C3)c3cc(C#N)ccc32)nc1` (racemic) [Example 26, (±)-3-(2-methoxyphenyl)-1-[(5-methoxy-2-pyridyl)sulfonyl]-3-[2-(4-methylpiperazin-1-yl)-6-azaspiro[3.3]heptan-6-yl]-2-oxo-indoline-5-carbonitrile], the Ki in assay [1] lay in the range of 1 to 10 nM. Also, in assay [2], the “Ki(h-V1a)/ Ki(h-V1b)” value is recorded as “++ (25-75)”.

In assay [1], `CCOc1ncccc1C1(N2CC3(CC(N4CCN(C)CC4)C3)C2)C(=O)N(S(=O)(=O)c2ccc(OC)cn2)c2ccc(C#N)cc21` (racemic) [Example 27, (±)-3-(2-ethoxy-3-pyridyl)-1-[(5-methoxy-2-pyridyl)sulfonyl]-3-[2-(4-methylpiperazin-1-yl)-6-azaspiro[3.3]heptan-6-yl]-2-oxo-indoline-5-carbonitrile] came in with an inhibitory constant (Ki) of 1 to 10 nM. Also, the “Ki(h-V1a)/ Ki(h-V1b)” value in assay [2] is listed as “+++ (>75)”.

`CCOc1ccc(OC)cc1C1(N2CC3(CC(N4CCN(C5COC5)CC4)C3)C2)C(=O)N(S(=O)(=O)c2ccc(OC)cn2)c2ccc(C#N)cc21` (racemic) [Example 28, (±)-3-(2-ethoxy-5-methoxy-phenyl)-1-[(5-methoxy-2-pyridyl)sulfonyl]-3-[2-[4-(oxetan-3-yl)piperazin-1-yl]-6-azaspiro[3.3]heptan-6-yl]-2-oxo-indoline-5-carbonitrile] came in with a Ki in assay [1] of 1 to 10 nM. Further, the “Ki(h-V1a)/ Ki(h-V1b)” value in assay [2] is “+++ (>75)”.

`COc1ccc(S(=O)(=O)N2C(=O)C(c3cccnc3C(C)(F)F)(N3CC4(CN(C5CCN(C)CC5)C4)C3)c3cc(C#N)ccc32)nc1` (racemic) [Example 30, (±)-3-[2-(1,1-difluoroethyl)-3-pyridyl]-1-[(5-methoxy-2-pyridyl)sulfonyl]-3-[2-(1-methyl-4-piperidyl)-2,6-diazaspiro[3.3]heptan-6-yl]-2-oxo-indoline-5-carbonitrile]: the Ki in assay [1] was 1 to 10 nM. The “Ki(h-V1a)/ Ki(h-V1b)” value in assay [2] is recorded as “+ (10-<25)”.

The compound `CCOc1ccc(OC)cc1C1(N2CC3(CN(C4CCN(C)CC4)C3)C2)C(=O)N(S(=O)(=O)c2ccc(OC)cn2)c2ccc(C#N)cc21` (single isomer, unassigned; (+)) [Example 1A, (+)-3-(2-ethoxy-5-methoxy-phenyl)-1-[(5-methoxy-2-pyridyl)sulfonyl]-3-[2-(1-methyl-4-piperidyl)-2,6-diazaspiro[3.3]heptan-6-yl]-2-oxo-indoline-5-carbonitrile] had a Ki in assay [1] of under 1 nM. The “Ki(h-V1a)/ Ki(h-V1b)” value in assay [2] is “+++ (>75)”.

For the compound `CCOc1ncccc1C1(N2CC3(CN(C4CCN(C)CC4)C3)C2)C(=O)N(S(=O)(=O)c2ccc(OC)cn2)c2ccc(C#N)cc21` (single isomer, unassigned; (+)) [Example 9A, (+)-3-(2-ethoxy-3-pyridyl)-1-[(5-methoxy-2-pyridyl)sulfonyl]-3-[2-(1-methyl-4-piperidyl)-2,6-diazaspiro[3.3]heptan-6-yl]-2-oxo-indoline-5-carbonitrile], the Ki in assay [1] was under 1 nM. The “Ki(h-V1a)/ Ki(h-V1b)” value in assay [2] is on record as “+++ (>75)”.

In turn, `CCOc1ccc(OC)cc1C1(N2CC3(CN(C4CCN(C5COC5)CC4)C3)C2)C(=O)N(S(=O)(=O)c2ccc(OC)cn2)c2ccc(C#N)cc21` (single isomer, unassigned; (+)) [Example 11, (+)-3-(2-ethoxy-5-methoxyphenyl)-1-((5-methoxypyridin-2-yl)sulfonyl)-3-(6-(1-(oxetan-3-yl)piperidin-4-yl)-2,6-diazaspiro[3.3]heptan-2-yl)-2-oxoindoline-5-carbonitrile] displayed an inhibitory constant (Ki) in assay [1] of under 1 nM. In assay [2], the “Ki(h-V1a)/ Ki(h-V1b)” value was “+++ (>75)”.

Compound `CCOc1ccc(OC)cc1C1(N2CC3(CC(N4CCN(C)CC4)C3)C2)C(=O)N(S(=O)(=O)c2ccc(OC)cn2)c2ccc(C#N)cc21` (single isomer, unassigned; (+)) [Example 17B, (+)-3-(2-ethoxy-5-methoxy-phenyl)-1-[(5-methoxy-2-pyridyl)sulfonyl]-3-[2-(4-methylpiperazin-1-yl)-6-azaspiro[3.3]heptan-6-yl]-2-oxo-indoline-5-carbonitrile] displayed a Ki in assay [1] of under 1 nM. Besides, in assay [2], the “Ki(h-V1a)/ Ki(h-V1b)” value was “+++ (>75)”.

Regarding `COc1ccc(S(=O)(=O)N2C(=O)C(c3ccccc3OC)(N3CC4(CN(C5CCN(C)CC5)C4)C3)c3cc(C#N)ccc32)nc1` (single isomer, unassigned; (+)) [Example 18A, (+)-3-(2-methoxyphenyl)-1-[(5-methoxy-2-pyridyl)sulfonyl]-3-[2-(1-methyl-4-piperidyl)-2,6-diazaspiro[3.3]heptan-6-yl]-2-oxo-indoline-5-carbonitrile], in assay [1], the inhibitory constant (Ki) was under 1 nM. Further, in assay [2], the “Ki(h-V1a)/ Ki(h-V1b)” value is “+ (10-<25)”.

As to `COc1ccc(S(=O)(=O)N2C(=O)C(c3ccccc3OC)(N3CC4(CN(C5CCN(C6COC6)CC5)C4)C3)c3cc(C#N)ccc32)nc1` (single isomer, unassigned; (+)) [Example 23, (+)-3-(2-methoxyphenyl)-1-[(5-methoxy-2-pyridyl)sulfonyl]-3-[2-[1-(oxetan-3-yl)-4-piperidyl]-2,6-diazaspiro[3.3]heptan-6-yl]-2-oxo-indoline-5-carbonitrile], the Ki in assay [1] fell in the range of 1 to 10 nM. In addition, the “Ki(h-V1a)/ Ki(h-V1b)” value in assay [2] is “+ (10-<25)”.

`CCOc1ccc(OC)cc1C1(N2CC3(CN(c4ccnc(C)c4)C3)C2)C(=O)N(S(=O)(=O)c2ccc(OC)cc2OC)c2ccc(C#N)cc21` (single isomer, unassigned; (+)) [Example 24, (+)-1-(2,4-dimethoxyphenyl)sulfonyl-3-(2-ethoxy-5-methoxy-phenyl)-3-[2-(2-methyl-4-pyridyl)-2,6-diazaspiro[3.3]heptan-6-yl]-2-oxo-indoline-5-carbonitrile] showed a Ki in assay [1] of 10 to 100 nM. In addition, in assay [2], the “Ki(h-V1a)/ Ki(h-V1b)” value is on record as “+++ (>75)”.

The compound `CCOc1ccc(OC)cc1C1(N2CC3(CN(c4ccnc(C)c4)C3)C2)C(=O)N(S(=O)(=O)c2ccc(OC)cn2)c2ccc(C#N)cc21` (single isomer, unassigned; (+)) [Example 25, (+)-3-(2-ethoxy-5-methoxy-phenyl)-1-[(5-methoxy-2-pyridyl)sulfonyl]-3-[2-(2-methyl-4-pyridyl)-2,6-diazaspiro[3.3]heptan-6-yl]-2-oxo-indoline-5-carbonitrile] yielded an inhibitory constant (Ki) in assay [1] of under 1 nM. In addition, in assay [2], the “Ki(h-V1a)/ Ki(h-V1b)” value is “+++ (>75)”.

The record behind these values is patent publication US9688678B2, “Oxindole compounds carrying a nitrogen-bound spiro substituent and use thereof for treating vasopressin-related diseases” (AbbVie Deutschland GmbH & Co. KG, priority 2014, dated 2017).
